Reference: US20060269631A1, “Morinda citrifolia-based formulation for inhibiting metastasis of carcinogenic cells” (priority 2003, published 2006)
“And” between values parts separate entries of the source, which are not always exact repeats. Equal values may be shown once. Marks after values point to notes of the source that are not given here.

Key:
L-1 sarcoma cells = conditions: in vivo; cited from earlier work
Lu-ECAM-1 = conditions: among a series of carbohydrates; cited from earlier work
[1] = body weight post-implantation and toxic symptoms in the metastasis study; assay type: in vivo, mice
Procedure: (§1) In the vehicle control group, the distilled water was administrated at 10 ml/Kg IP for three consecutive weeks. The body weight for all mice was recorded at day 1, day 8, day 15, and day 22 following tumor cell implantation. The lungs were excised and fixed 21 days after tumor inoculation. Metastatic nodules on the lung surface were then counted under a dissecting microscope. The student's t test was used to determine the statistical difference between the groups of treatment and vehicle control groups in a statistic analysis.

[2] = tested on: B16-F0 murine melanoma cells; test: in vivo metastasis test, syngeneic tumor metastasis model of melanoma B16-F0 cells in C57BL/6J mice; conditions: for % Inhibition: vs vehicle control
Procedure: An in vivo metastasis test was performed, wherein groups of 6 (positive control), 6 (Morinda citrifolia-PPT test group), and 9 (vehicle control) immunocompetent (6-8 weeks old), pathogen-free (SPF) C57BL/6 male mice were used in this study and bred in animal isolator (IVC racks) under specific pathogens free (SPF) condition at 23±1° C. Viable B16F0 murine melanoma cells (ATCC CRL-6322, 6×10^4 in 0.2 mL) were inoculated into experimental mice intravenously, via tail vein. Mice were administered the Morinda citrifolia-PPT, 1% in drinking water ad libitum, for one week prior to tumor cell implantation and three weeks afterwards. Additionally, 0.8 mg Morinda citrifolia-PPT/mouse was injected intraperitoneally (IP) for 21 consecutive days following tumor cell implantation. Concurrently, the reference agent, mitomycin, was administrated IP at 1 mg/Kg twice per week for six doses after tumor cell implantation.
as §1
Relating to the Table 1 above, viable B16-F0 murine melanoma cells were inoculated into C57B1/6J mice. Mice were administered ad libitum 1% Morinda citrifolia-PPT one week prior to the implantation and throughout the experiment. […] distilled water (vehicle control), 0.8 mg/m and 4 mg/mouse of Morinda citrifolia-PPT were injected I.P. into mice for 21 consecutive days following the inoculation. Mitomycin was used as a positive control and injected twice a week at 1 mg/Kg for a total of six doses. The lungs were excised and fixed at the end of experiment and the metastasis nodules on the lung surface were counted under a dissecting microscope. The test was used to determine the significant difference between the groups of treatment and vehicle control. (SEM=standard error of mean; ^b p<0.006; ^c p<0.005.)
In the syngeneic tumor metastasis model of melanoma B16-F0 cells in C57BL/6J mice, MDA-4 was administered at 1% (10 mg/ml) by a drinking method for one week for pre-treatment, and for three weeks after the tumor cells were implanted, during the study and throughout the experiment for a total of 28 treatments. Additionally, MDA-4 at a dose of 0.8 mg/mouse was administered intraperitoneally (IP) daily for a total of 21 consecutive days after tumor cells were implanted in the mice.
During the experiment, the test substance MDA-4 was provided by Morinda, Inc. and used for in vivo anti-metastasis studies. MDA-4 was dissolved in sterile distilled water and, as stated, administrated with 1% (10 mg/ml) drinking method for one week pre-treatment, and three week after tumor cells were implanted during the study throughout the experiment for a total of 28 treatments. Additionally, as stated, MDA-4 at dose of 0.8 mg/mouse was administrated intraperitoneally (IP) daily for a total of 21 consecutive days after tumor cells implanted.
The murine melanoma cell line, B16-F0 (ATCC CRL-6322), was purchased from American Type Culture Collection and Dulbecco's Modified Eale's medium, 90% with Fetal Bovine Serum, 10% was used as culture medium. The tumor cells were incubated in an atmosphere containing 5% CO2 at 37° C. The medium was supplemented with 1% Antibiotic-Antimycotic.
Specific pathogen-free male C57BL/6J mice at 6-8 weeks of age, weighing 24-28 gms were provided by National Taiwan University Animal Center. The animals were housed in Individually Ventilated Cages Racks (IVC Racks, 36 Mini Isolator System) under Specific Pathogen-Free (SPF) conditions throughout the experiment. […]

[3] = tested on: NRK 2 cells, fibronectin-coated well; test: adhesion of NRK 2 cells to a fibronectin-coated well; assay type: cell-based, rat
Procedure: One assay measured the adhesion of NRK 2 (normal rat kidney cell, ATCC CRL-6509) cells to a fibronectin-coated well. Morinda citrifolia-PPT, the 0.1 N NaCl Morinda citrifolia-PPT fraction, GRGDSP peptide (SIGMA), and 0.4% DMSO (SIGMA, vehicle control) in modified MEM-HEPES buffer pH 7.4 (Hyclone) were incubated in separate wells for 30 minutes at 37° C. The reaction was initiated by addition of NRK 2 cells (2×10^6/ml) and run for 30 minutes. Each well was then washed 6 times with Dulbecco's PBS (Hyclone) followed by addition of 5 μM calcein AM (SIGMA) and a further 2 hour incubation period. Quantitation of fluorescent intensity, resulting from interaction of calcein AM with cells attached to the fibronectin coated plate, was read by a SpectrFluor Plus plate reader (AG Flwith excitation at 485 nm and emission at 535 nm.
Relating to Table 3, NRK 2 cells were used to adhere to fibronectin-coated wells. Quantitation of fluorescent intensity resulting from interaction of calcein AM with cells attached to the fibronectin coated plate was read by a SpectrFluor Plus plate reader.

[4] = individual mouse, R = diameter of nodule

## O=C[C@H](O)[C@@H](O)[C@@H](O)[C@H](O)CO [D-galactose]
L-1 sarcoma cells
  inhibition of liver metastasis: inhibit

## CC(=O)NC1C(OC2C(O)C(CO)OC(OC3C(CO)OC(O)C(O)C3O)C2O)OC(CO)C(O)C1OC1OC(CO)C(O)C(O)C1OC1OC(C)C(O)C(O)C1O (stereo not shown) [Lacto-N-fucopentose I]
Lu-ECAM-1
  blocking of adhesion of B16-F10 to Lu-ECAM-1: most effectively blocked adhesion

## CO[C@@]12[C@H](COC(N)=O)C3=C(C(=O)C(C)=C(N)C3=O)N1C[C@@H]1N[C@@H]12 [Mitomycin]
[1]; group mean
  Body Weight of Post-Implantation, Day 1, Mean ± SEM: 27.7 ± 0.9 g
  Body Weight of Post-Implantation, Day 8, Mean ± SEM: 28.0 ± 0.6 g
  Body Weight of Post-Implantation, Day 15, Mean ± SEM: 27.3 ± 0.9 g
  Body Weight of Post-Implantation, Day 22, Mean ± SEM: 27.3 ± 0.9 g
[1]; in words
  body weight change compared to the vehicle control group: no body weight increase
[1]; individual mouse
  Body Weight of Post-Implantation, Day 1: 28 g and 29 g and 26 g
  Body Weight of Post-Implantation, Day 8: 28 g and 29 g and 27 g
  Body Weight of Post-Implantation, Day 15: 27 g and 29 g and 26 g
  Body Weight of Post-Implantation, Day 22: 27 g and 29 g and 26 g
[2]; PPT at 0.8 mg/mouse combined with free drinking, mitomycin at 1 mg/Kg
  metastasis inhibition: 55%
[2]; Table 1, PPT 0.8 mg/mouse, mitomycin 1 mg/Kg
  % Inhibition: 60%^c
[2]; Table 4, mean ± SEM, MDA-4 drinking 1% x28 & IP 0.8 mg/mouse x21, mitomycin IP 1 mg/kg x6
  No. of Metastastic Nodules in the Lung: 22 ± 2
[2]; Table 4, vs vehicle, MDA-4 drinking 1% x28 & IP 0.8 mg/mouse x21, mitomycin IP 1 mg/kg x6
  % Inh.: 55%
[2]; Table 5, group mean
  No. of Metastastic Nodules in the Lung, Total Nodules, X ± SEM: 22 ± 2
[2]; Table 5, individual mouse
  No. of Metastastic Nodules in the Lung, Total Nodules: 23 and 24 and 19
[2]; Table 5, MDA-4 drinking 1% x28 & IP 0.8 mg/mouse x21, mitomycin IP 1 mg/kg x6
  % Inhibition: 55%
[2]; [4]
  No. of Metastastic Nodules in the Lung, 1 mm<: 6 and 7 and 4
  No. of Metastastic Nodules in the Lung, R < 1 mm: 16 and 17 and 15
  No. of Metastastic Nodules in the Lung, R > 2 mm: 1 and 0 (2×)
[2]; individual mouse, lungs excised 21 days after inoculation, PPT 0.8 mg/mouse IP x21 + 1% in drinking water, mitomycin 1 mg/Kg IP x6
  No. of Metastasis Nodules in the Lung: 23 and 24 and 19

## GRGDSP peptide
[3]; Conc. 31.25 μg/ml
  Percentage adhesion inhibition, fibronectin mediated: 16
[3]; Conc. 62.5 μg/ml
  Percentage adhesion inhibition, fibronectin mediated: 22
[3]; Conc. 125 μg/ml
  Percentage adhesion inhibition, fibronectin mediated: 43
[3]; Conc. 250 μg/ml
  Percentage adhesion inhibition, fibronectin mediated: 78
[3]; Conc. 500 μg/ml
  Percentage adhesion inhibition, fibronectin mediated: 98

## arabinogalctose
L-1 sarcoma cells
  inhibition of liver metastasis: inhibit
